Laboratory results published in patent US4621081A, “Cephalosporin antibiotics” (Glaxo Group Limited, priority 1978, dated 1986).

Columns and labels:
[1] = General (broad spectrum) antibiotic activity; format: cell-based
[2] = test system: strains of Pseudomonas aeruginosa; test: Experimental infections in mice with strains of Pseudomonas aeruginosa; format: in vivo; conditions: experimental infection
[3] = Acute toxicity tests in mice; conditions: mouse, in vivo
[4] = Effect of increased inocula; format: cell-based
[5] = Bactericidal action relative to minimum inhibitory concentration; format: cell-based
[6] = Effect of human serum on antibacterial properties; format: cell-based
gram-negative bacteria = test: Experimental infections in mice with gram-negative bacteria; format: in vivo
[7] = test system: strains of Staphylococcus aureas; test: Activity against strains of Staphylococcus aureas; format: cell-based
[8] = Serum levels and serum half-life in primates after intramuscular injection; format: in vivo
Nephrotoxicity in rats = format: in vivo; conditions: dosages of 2.0 g/kg
strains of Pseudomonas = test: Activity against strains of Pseudomonas; format: cell-based
[9] = Distribution in the bodies of small rodents after subcutaneous injection; format: in vivo

SMILES	general antibiotic properties / antibiotic activity [1]	protection against strains of Pseudomonas aeruginosa [2]	protection compared with the treatment with an aminoglycoside such as amikacin ([2]; versus an aminoglycoside such as amikacin)	LD50 [3] [mg/kg]	effect of increased inocula against the compound [4]	bactericidal at concentrations close to the minimum inhibitory concentration [5]	antibacterial properties impaired by human serum [6]	treatment of experimental infections in mice with gram-negative bacteria (gram-negative bacteria)	activity against strains of Staphylococcus aureas [7]	half-life in man (probability, from serum half-life in primates) ([8]; man, inferred from serum half-life in primates)	serum levels in primates ([8]; primates, intramuscular injection)	nephrotoxicity in rats (Nephrotoxicity in rats)	activity against strains of Pseudomonas (strains of Pseudomonas)	distribution in the bodies of small rodents [9]	therapeutic levels in small rodents [9]
C[n+]1ccc(SCC2=C(C(=O)[O-])N3C(=O)[C@@H](NC(=O)/C(=N\OC(C)(C)C(=O)O)c4csc(N)n4)[C@H]3SC2)cc1 [(6R,7R)-7-[(Z)-2-(2-aminothiazol-4-yl)-2-(2-carboxyprop-2-oxyimino)acetamido]-3-[(1-methylpyridinium-4-yl)-thiomethyl]ceph-3-em-4-carboxylate]	not dissimilar properties to the compound of formula (Ib)	–	–	–	–	–	–	–	–	–	–	–	–	–	–
C[n+]1ccc(SCC2=C(C(=O)[O-])N3C(=O)[C@@H](NC(=O)/C(=N\OC4(C(=O)O)CCC4)c4csc(N)n4)[C@H]3SC2)cc1 [compound of formula (Ib), (6R,7R)-7-[(Z)-2-(2-aminothiazol-4-yl)-2-(1-carboxycyclobut-1-oxyimino)acetamido]-3-[(1-methylpyridinium-4-yl)-thiomethyl]ceph-3-em-4-carboxylate]	possesses to an outstanding extent the general antibiotic properties	excellent protection	comparable	> 1000	low	rapidly bactericidal	not impaired	successfully treated	useful activity	comparatively long half-life	high and long lasting serum levels	No nephrotoxicity was observed	excellent activity	well distributed	useful therapeutic levels
